# Values of other authors, collected in patent US20260174730A1, “A COMPOSITION FOR TREATING PARKINSON'S DISEASE” (COUNCIL OF SCIENTIFIC & INDUSTRIAL RESEARCH, priority 2023, published 2026).
# Test system: oxygen-glucose deprivation in vitro
smiles,measurement,value
C/C(=C\COc1ccc2ccc(=O)oc2c1)CC[C@@H]1C(C)(C)[C@H]2CC[C@]1(C)O2 [farnesiferol C],neuroprotective activity,moderate neuroprotective activity
